Where only a bound is given, the exact number is not on record here.

For assay [1], the target named is T1, RAR β (Homo sapiens, UniProt P10826).
T1 sequence (P10826 1-455): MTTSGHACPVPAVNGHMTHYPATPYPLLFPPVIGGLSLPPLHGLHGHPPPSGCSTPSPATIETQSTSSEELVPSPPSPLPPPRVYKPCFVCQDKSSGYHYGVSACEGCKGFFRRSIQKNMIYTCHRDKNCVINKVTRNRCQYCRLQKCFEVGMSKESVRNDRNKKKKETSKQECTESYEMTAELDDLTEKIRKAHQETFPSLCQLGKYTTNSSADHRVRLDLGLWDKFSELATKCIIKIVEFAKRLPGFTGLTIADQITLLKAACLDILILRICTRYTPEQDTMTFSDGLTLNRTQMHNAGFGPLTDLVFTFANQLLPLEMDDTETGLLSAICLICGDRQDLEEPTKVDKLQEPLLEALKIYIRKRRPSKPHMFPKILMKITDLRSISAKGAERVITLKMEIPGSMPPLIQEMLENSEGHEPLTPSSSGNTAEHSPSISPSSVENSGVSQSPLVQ
As to the kind of experiment: RAR β EC50/(efficacy). The following applies: for RAR β (EFFICACY): value in brackets of cell EC50/(EFFICACY)/Kd. Type of assay: cell-based.

Assay [2] deals with T1, RAR β. As to the kind of experiment: RAR β Kd. Type of assay: binding. As to conditions: last item of cell EC50/(EFFICACY)/Kd.
The target of another assay is T2, RAR α (Homo sapiens, UniProt P10276).
T2 sequence (P10276 1-462): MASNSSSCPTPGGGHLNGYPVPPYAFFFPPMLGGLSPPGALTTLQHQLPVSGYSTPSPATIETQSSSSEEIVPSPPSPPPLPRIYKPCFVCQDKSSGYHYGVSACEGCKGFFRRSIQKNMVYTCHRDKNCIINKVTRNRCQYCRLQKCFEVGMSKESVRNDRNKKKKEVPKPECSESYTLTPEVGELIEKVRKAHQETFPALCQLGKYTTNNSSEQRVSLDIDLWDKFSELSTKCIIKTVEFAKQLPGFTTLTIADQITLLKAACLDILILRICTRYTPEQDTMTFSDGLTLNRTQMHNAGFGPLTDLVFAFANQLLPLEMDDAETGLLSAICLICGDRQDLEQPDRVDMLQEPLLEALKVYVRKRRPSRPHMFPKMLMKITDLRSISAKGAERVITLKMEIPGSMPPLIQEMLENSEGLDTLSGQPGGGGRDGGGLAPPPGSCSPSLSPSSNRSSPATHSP
Put plainly: RAR α Kd. Type of assay: binding. The following applies: last item of cell EC50/(EFFICACY)/Kd.

The target of another assay is T3, CYP26A (P450RAI-1) (Homo sapiens, UniProt O43174).
T3 construct: expressed in transfected cells; host or cells: HeLa
T3 sequence (O43174 1-497): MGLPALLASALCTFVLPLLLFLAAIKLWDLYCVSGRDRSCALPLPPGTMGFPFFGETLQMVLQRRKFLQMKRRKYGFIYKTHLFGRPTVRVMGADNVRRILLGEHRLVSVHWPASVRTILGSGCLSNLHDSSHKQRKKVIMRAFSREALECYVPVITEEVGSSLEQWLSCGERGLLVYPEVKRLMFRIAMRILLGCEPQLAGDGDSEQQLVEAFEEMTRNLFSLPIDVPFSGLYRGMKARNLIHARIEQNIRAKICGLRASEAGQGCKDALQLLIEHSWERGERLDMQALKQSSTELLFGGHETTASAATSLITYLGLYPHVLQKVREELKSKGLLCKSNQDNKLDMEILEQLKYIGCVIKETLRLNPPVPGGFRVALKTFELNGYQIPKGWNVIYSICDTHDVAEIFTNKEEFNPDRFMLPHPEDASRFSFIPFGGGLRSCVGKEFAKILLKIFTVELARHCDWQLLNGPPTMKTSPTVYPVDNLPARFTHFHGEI
Put plainly: Cell-based inhibition of RA metabolism in CYP26A stably transfected HeLa cells. The following applies: stably transfected HeLa cells, [3H]-RA, 3 hours at 37° C.; read-out: P450RAI-1 Whole cell IC50. In a few lines: (§1)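 Stably transfected HeLa cells (5×10^5/well) in MEM with 10% FBS and 0.05 μCi [3H]-RA, compounds at 10, 1 or 0.1 μM final, 3 h at 37° C. Retinoids extracted by modified Bligh-Dyer (methylene chloride); aqueous radioactivity counted; ID50 for 50% inhibition of RA metabolism derived from log-transformed data.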

The target of a further assay is T4, CYP26B (P450RAI-2) (Homo sapiens, UniProt Q9NR63).
T4 construct: expressed in transfected cells; host or cells: HeLa
T4 sequence (Q9NR63 1-512): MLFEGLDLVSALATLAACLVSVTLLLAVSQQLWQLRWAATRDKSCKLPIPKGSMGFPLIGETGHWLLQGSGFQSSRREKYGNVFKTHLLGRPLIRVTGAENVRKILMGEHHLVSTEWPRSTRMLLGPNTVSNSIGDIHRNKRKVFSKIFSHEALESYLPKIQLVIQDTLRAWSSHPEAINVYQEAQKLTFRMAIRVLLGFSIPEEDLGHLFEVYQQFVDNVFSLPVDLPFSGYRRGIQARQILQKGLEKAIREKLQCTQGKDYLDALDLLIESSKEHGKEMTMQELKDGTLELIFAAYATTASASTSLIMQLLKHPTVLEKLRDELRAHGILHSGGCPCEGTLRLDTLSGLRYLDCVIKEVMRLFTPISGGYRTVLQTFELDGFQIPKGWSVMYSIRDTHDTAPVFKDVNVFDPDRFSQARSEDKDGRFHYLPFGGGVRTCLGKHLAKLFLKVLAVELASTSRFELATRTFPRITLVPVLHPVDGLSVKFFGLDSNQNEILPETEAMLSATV
Put plainly: Cell-based inhibition of RA metabolism in CYP26B stably transfected HeLa cells. The following applies: stably transfected HeLa cells, [3H]-RA, 3 hours at 37° C.; read-out: P450RAI-2 Whole cell IC50. In a few lines:
as §1

The target of the next assay is T5, RAR γ (Homo sapiens, UniProt P13631).
T5 sequence (P13631 1-454): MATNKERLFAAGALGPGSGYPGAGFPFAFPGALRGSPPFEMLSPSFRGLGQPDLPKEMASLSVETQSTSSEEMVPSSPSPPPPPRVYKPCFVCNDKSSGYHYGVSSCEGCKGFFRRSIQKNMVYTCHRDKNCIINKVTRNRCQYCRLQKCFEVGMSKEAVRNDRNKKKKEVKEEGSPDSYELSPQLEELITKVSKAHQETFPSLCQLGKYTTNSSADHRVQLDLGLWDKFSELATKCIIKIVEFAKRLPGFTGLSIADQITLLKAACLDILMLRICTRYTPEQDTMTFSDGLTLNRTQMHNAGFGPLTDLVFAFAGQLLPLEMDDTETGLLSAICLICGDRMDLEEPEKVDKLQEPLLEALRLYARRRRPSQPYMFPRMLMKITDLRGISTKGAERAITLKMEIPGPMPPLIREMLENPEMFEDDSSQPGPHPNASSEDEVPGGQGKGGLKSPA
Put plainly: RAR γ Kd. Type of assay: binding. The following applies: last item of cell EC50/(EFFICACY)/Kd.

As to `C#Cc1cc(NC(=O)Nc2ccc(C(=O)O)c(F)c2)cc2c1OC(C)(C)CC2(C)C` [Compound 63, 4-[3-(8-Ethynyl-2,2,4,4-tetramethyl-chroman-6-yl)-ureido]-2-fluoro-benzoic acid], at RAR β [1] (first item of cell EC50/(EFFICACY)/Kd), the EC50 came out at 0.853 µM. Further, on RAR β [1], the “RAR β (EFFICACY)” value was found to be 37. For the same compound, the Kd is 11 µM at RAR β [2], above 100 µM at RAR α and above 100 µM at RAR γ. For the same compound, the IC50 at CYP26A (P450RAI-1) was above 10 µM; at CYP26B (P450RAI-2), 0.68 µM.

Take `CC1(C)CC(C)(C)c2cc(C#Cc3ccc(CC(=O)O)c(F)c3)cc(O)c2O1` [Compound 10, [2-Fluoro-4-(8-hydroxy-2,2,4,4-tetramethyl-chroman-6-ylethynyl)-phenyl]-acetic acid]: the “RAR β (EFFICACY)” value at RAR β [1] is listed as 15. The Kd on RAR β [2], at RAR α and at RAR γ was above 10 µM each time. Also, the values for the IC50 at CYP26A (P450RAI-1) and at CYP26B (P450RAI-2) were 0.07 µM and 0.7 µM, respectively.

As for `CC(C(=O)O)c1ccc(C#Cc2cc(CN(C)C3CC3)c3c(c2)C(C)(C)CC(C)(C)O3)cc1` (stereo not shown) [Compound 8, 2-(4-{8-[(Cyclopropyl-methyl-amino)-methyl]-2,2,4,4-tetramethyl-chroman-6-ylethynyl}-phenyl)-propionic acid], on RAR β [1], the “RAR β (EFFICACY)” value worked out at 15. Besides, the results for the dissociation constant (Kd) on RAR β [2], at RAR α and on RAR γ were 4.8 µM, 0.957 µM and above 10 µM, respectively. For the same compound, the IC50 at CYP26A (P450RAI-1) was 0.05 µM; on CYP26B (P450RAI-2), above 10 µM.

For the compound `COc1cc(C#Cc2ccc(CC(=O)O)c(F)c2)cc2c1C(N(C)C1CC1)CCC2(C)C` (stereo not shown) [Compound 26, {4-[5-(Cyclopropyl-methyl-amino)-4-methoxy-8,8-dimethyl-5,6,7,8-tetrahydro-naphthalen-2-ylethynyl]-2-fluoro-phenyl}-acetic acid], the “RAR β (EFFICACY)” value on RAR β [1] turned out to be 25. Also, the figures for the Kd on RAR β [2], on RAR α and on RAR γ were above 10 µM, above 10 µM and 1.12 µM, respectively. Also, the IC50 worked out at 0.018 µM on CYP26A (P450RAI-1) and 5 µM on CYP26B (P450RAI-2).

As for `Cc1ccc(CN(C)C2CC2)cc1C#Cc1ccc(/C=C/C(=O)O)cc1` [Compound 34, (E)-3-(4-{5-[(Cyclopropyl-methyl-amino)-methyl]-2-methyl-phenylethynyl}-phenyl)-acrylic acid], the “RAR β (EFFICACY)” value on RAR β [1] turned out to be 20. The dissociation constant (Kd) on RAR β [2] came out at 3.49 µM; on RAR α, 5.65 µM; on RAR γ, 8.53 µM. The IC50 on CYP26A (P450RAI-1) is above 10 µM; on CYP26B (P450RAI-2), 0.12 µM.

For the compound `CCOC(=O)C1=C(C)CC(C)(C)c2cc(C#Cc3ccc(CC(=O)O)c(F)c3)ccc21` [Compound 59, 6-(4-Carboxymethyl-3-fluoro-phenylethynyl)-2,4,4-trimethyl-3,4-dihydro-naphthalene-1-carboxylic acid ethyl ester], at RAR β [1], the “RAR β (EFFICACY)” value is on record as 35. In addition, the Kd is 2.86 µM on RAR β [2], above 10 µM at RAR α and above 10 µM at RAR γ. Besides, the half-maximal inhibitory concentration (IC50) is 1.2 µM on CYP26A (P450RAI-1) and above 10 µM on CYP26B (P450RAI-2).

For the compound `CC(C(=O)O)c1ccc(C#Cc2ccc3c(c2)C(C)(C)CCC3N(C)C2CC2)cc1` (stereo not shown) [Compound 51, 2-{4-[5-(Cyclopropyl-methyl-amino)-8,8-dimethyl-5,6,7,8-tetrahydro-naphthalen-2-ylethynyl]-phenyl}-propionic acid], on RAR β [1], the “RAR β (EFFICACY)” value was 5. The Kd on RAR β [2], on RAR α and on RAR γ was above 10 µM each time. The IC50 on CYP26A (P450RAI-1) was 0.2 µM; on CYP26B (P450RAI-2), above 10 µM.

Consider `CN(C1CC1)C1CCC(C)(C)c2cc(C#Cc3ccc(C(C)(C)C(=O)O)cc3)ccc21` (stereo not shown) [Compound 52, 2-{4-[5-(Cyclopropyl-methyl-amino)-8,8-dimethyl-5,6,7,8-tetrahydro-naphthalen-2-ylethynyl]-phenyl}-2-methyl-propionic acid], for which, on RAR β [1], the “RAR β (EFFICACY)” value is on record as below 5. The Kd at RAR β [2], on RAR α and on RAR γ was above 10 µM each time. Moreover, the IC50 at CYP26A (P450RAI-1) was 0.4 µM; on CYP26B (P450RAI-2), above 10 µM.

Regarding `COc1cc(C#CC2=CCC(/C=C(\C)C(=O)O)C=C2)cc2c1C(N(C)C1CC1)CCC2(C)C` (stereo not shown) [Compound 30, (E)-3-{4-[5-(Cyclopropyl-methyl-amino)-4-methoxy-8,8-dimethyl-5,6,7,8-tetrahydro-naphthalen-2-ylethynyl]-cyclohexa-2,4-dienyl}-2-methyl-acrylic acid], the “RAR β (EFFICACY)” value at RAR β [1] was 15. Moreover, the Kd on RAR β [2], on RAR α and at RAR γ was above 10 µM each time. Also, the IC50 at CYP26A (P450RAI-1) was 0.18 µM; on CYP26B (P450RAI-2), above 10 µM.

For the compound `C=Cc1cc(C#Cc2ccc(CC(=O)O)cc2)cc2c1C(=O)CCC2(C)C` [Compound 22, [4-(8,8-Dimethyl-5-oxo-4-vinyl-5,6,7,8-tetrahydro-naphthalen-2-ylethynyl)-phenyl]-acetic acid], the “RAR β (EFFICACY)” value at RAR β [1] worked out at 15. Besides, the Kd on RAR β [2], at RAR α and on RAR γ was above 10 µM each time. The IC50 came out at 0.007 µM at CYP26A (P450RAI-1) and 0.2 µM on CYP26B (P450RAI-2).

With `CN(Cc1cccc(C#Cc2ccc(/C=C/C(=O)O)cc2)c1)C1CC1` [Compound 31, (E)-3-(4-{3-[(Cyclopropyl-methyl-amino)-methyl]-phenylethynyl}-phenyl)-acrylic acid], the “RAR β (EFFICACY)” value on RAR β [1] was determined as 25. Moreover, the Kd on RAR β [2], on RAR α and at RAR γ was above 10 µM in each case. The IC50 at CYP26A (P450RAI-1) is above 10 µM; on CYP26B (P450RAI-2), 0.6 µM.

The record behind these values is patent US7468391B2, “Methods for treating retinoid responsive disorders using selective inhibitors of CYP26A and CYP26B” (Allergan, Inc., priority 2003, dated 2008).
